In patent publication US7993917B2, “Method for obtaining a cellular product from a cell or a tissue using protein-free medium” (The United States of America as represented by the …, priority 1999, dated 2011):
Read-outs that look alike come from different tables or passages of the source. One block for each compound: values may come before it.

System: P. falciparum isolates
Assay: 48 hour parasite lactate dehydrogenase (48 hr pLDH) drug sensitivity assay after transport from the field on ice in BAM
Assay type: cell-based
Settings: Plasmodium falciparum
Method: Malaria parasites fail to thrive after removal from the patient. They can be preserved either by cryopreservation in liquid nitrogen or storage at −70° C. These techniques used for long term storage are too labor-intensive and expensive for routine use. […] Transit time can vary between a few hours to less than a week. Because of the clinical demand for such a service, BAM was evaluated in the field as a transport medium for malaria parasites.

[1] = 24 h, isolate 1107, 1 day in transit, read-out: IC50
[2] = 24 h, isolate 1236, 1 day in transit, read-out: IC50
[3] = 24 h, isolate A116, 1 day in transit, read-out: IC50
[4] = 24 h, isolate A246, 1 day in transit, read-out: IC50
[5] = 24 h, isolate A296, 1 day in transit, read-out: IC50
[6] = 24 h, isolate B236, 1 day in transit, read-out: IC50
[7] = 24 h, isolate C67, 1 day in transit, read-out: IC50
[8] = 24 h, isolate C107, 1 day in transit, read-out: IC50
[9] = 24 h, isolate C166, 1 day in transit, read-out: IC50
[10] = 24 h, isolate D86, 1 day in transit, read-out: IC50
[11] = 24 h, isolate D107, 1 day in transit, read-out: IC50
[12] = 24 h, isolate D296, 1 day in transit, read-out: IC50
[13] = 24 h, isolate E107, 1 day in transit, read-out: IC50
[14] = 24 h, isolate F166, 1 day in transit, read-out: IC50
[15] = 24 h, isolate F296, 1 day in transit, read-out: IC50
[16] = 24 h, isolate G17, 1 day in transit, read-out: IC50
[17] = 24 h, isolate G236, 1 day in transit, read-out: IC50
[18] = 24 h, isolate H107, 1 day in transit, read-out: IC50
[19] = 24 h, isolate J107, 1 day in transit, read-out: IC50
[20] = 24 h, isolate K107, 1 day in transit, read-out: IC50
[21] = 24 h, isolate KilH, 1 day in transit, read-out: IC50
[22] = 24 h, isolate KilS, 1 day in transit, read-out: IC50
[23] = 24 h, isolate L107, 1 day in transit, read-out: IC50
[24] = 24 h, isolate L137, 1 day in transit, read-out: IC50
[25] = 48 h, isolate B116, 2 days in transit, read-out: IC50
[26] = 48 h, isolate B296, 2 days in transit, read-out: IC50
[27] = 48 h, isolate C108, 2 days in transit, read-out: IC50
[28] = 48 h, isolate G296, 2 days in transit, read-out: IC50
[29] = 48 h, isolate H236, 2 days in transit, read-out: IC50
[30] = 48 h, isolate R107, 2 days in transit, read-out: IC50

- IC50 (24 h, isolate 1107, 1 day in transit): 160 nM
- IC50 (24 h, isolate 1236, 1 day in transit): 22.2 nM
- IC50 (24 h, isolate A67, 1 day in transit): 191 nM
- IC50 (24 h, isolate A107, 1 day in transit): 818 nM
- IC50 (24 h, isolate A116, 1 day in transit): 58.4 nM
- IC50 (24 h, isolate A246, 1 day in transit): 20 nM
- IC50 (24 h, isolate A296, 1 day in transit): 115 nM
- IC50 (24 h, isolate B236, 1 day in transit): 90.6 nM
- IC50 (24 h, isolate C67, 1 day in transit): 143 nM
- IC50 (24 h, isolate C107, 1 day in transit): 554 nM
- IC50 (24 h, isolate C166, 1 day in transit): 30.8 nM
- IC50 (24 h, isolate D86, 1 day in transit): 33.2 nM
- IC50 (24 h, isolate D107, 1 day in transit): 502 nM
- IC50 (24 h, isolate E67, 1 day in transit): 50 nM
- IC50 (24 h, isolate E107, 1 day in transit): 554 nM
- IC50 (24 h, isolate F107, 1 day in transit): 818 nM
- IC50 (24 h, isolate F166, 1 day in transit): 29.8 nM
- IC50 (24 h, isolate F296, 1 day in transit): 66.4 nM
- IC50 (24 h, isolate G17, 1 day in transit): 52 nM
- IC50 (24 h, isolate G236, 1 day in transit): 330 nM
- IC50 (24 h, isolate H107, 1 day in transit): 180 nM
- IC50 (24 h, isolate J107, 1 day in transit): 294 nM
- IC50 (24 h, isolate K107, 1 day in transit): 300 nM
- IC50 (24 h, isolate KilH, 1 day in transit): 248 nM
- IC50 (24 h, isolate KilS, 1 day in transit): 122 nM
- IC50 (24 h, isolate L107, 1 day in transit): 224 nM
- IC50 (24 h, isolate L137, 1 day in transit): 320 nM
- IC50 (48 h, isolate B106, 2 days in transit): 294 nM
- IC50 (48 h, isolate B116, 2 days in transit): 35.2 nM
- IC50 (48 h, isolate B296, 2 days in transit): 664 nM
- IC50 (48 h, isolate C108, 2 days in transit): 256 nM
- IC50 (48 h, isolate G296, 2 days in transit): 400 nM
- IC50 (48 h, isolate H236, 2 days in transit): 91.4 nM
- IC50 (48 h, isolate R107, 2 days in transit): 78.8 nM
Structure (SMILES): CCN(CC)CCCC(C)Nc1ccnc2cc(Cl)ccc12 (stereo not shown) [Chloroquine, chloroquine]

- IC50 [1]: 40 nM
- IC50 [2]: 0.04 nM
- IC50 [3]: 152 nM
- IC50 [4]: 16.3 nM
- IC50 [5]: 476 nM
- IC50 [6]: 183 nM
- IC50 [7]: 136 nM
- IC50 [8]: 96.4 nM
- IC50 [9]: 165 nM
- IC50 [10]: 175 nM
- IC50 [11]: 264 nM
- IC50 [12]: 999 nM
- IC50 (24 h, isolate E67, 1 day in transit, read-out: IC50): 108 nM
- IC50 [13]: 230 nM
- IC50 [14]: 93.2 nM
- IC50 [15]: 99.2 nM
- IC50 [16]: 143 nM
- IC50 [17]: 304 nM
- IC50 [18]: 28 nM
- IC50 [19]: 55.4 nM
- IC50 [20]: 354 nM
- IC50 [21]: 378 nM
- IC50 [22]: 187 nM
- IC50 [23]: 58.8 nM
- IC50 [24]: 134 nM
- IC50 [25]: 136 nM
- IC50 [26]: 1.8 nM
- IC50 [27]: 160 nM
- IC50 [28]: 306 nM
- IC50 [29]: 208 nM
- IC50 [30]: 472 nM
Structure (SMILES): C=C[C@H]1C[N@@]2CC[C@H]1C[C@H]2[C@H](O)c1ccnc2ccc(OC)cc12 [Quinine, quinine]

- IC50 [1]: 6.6 nM
- IC50 [2]: 26.8 nM
- IC50 (24 h, isolate A67, 1 day in transit, read-out: IC50): 37.6 nM
- IC50 (24 h, isolate A107, 1 day in transit, read-out: IC50): 91.8 nM
- IC50 [3]: 70.2 nM
- IC50 [4]: 17 nM
- IC50 [5]: 152 nM
- IC50 [6]: 28.8 nM
- IC50 [7]: 117 nM
- IC50 [8]: 179 nM
- IC50 [9]: 68 nM
- IC50 [10]: 29.8 nM
- IC50 [11]: 178 nM
- IC50 [12]: 180 nM
- IC50 [13]: 152 nM
- IC50 (24 h, isolate F107, 1 day in transit, read-out: IC50): 23.6 nM
- IC50 [14]: 91.6 nM
- IC50 [15]: 202 nM
- IC50 [16]: 40.8 nM
- IC50 [17]: 33.8 nM
- IC50 [18]: 100 nM
- IC50 [19]: 12.6 nM
- IC50 [20]: 35.4 nM
- IC50 [21]: 125 nM
- IC50 [22]: 128 nM
- IC50 [23]: 18.4 nM
- IC50 [24]: 150 nM
- IC50 (48 h, isolate B106, 2 days in transit, read-out: IC50): 99.2 nM
- IC50 [25]: 145 nM
- IC50 [26]: 53.4 nM
- IC50 [27]: 86.2 nM
- IC50 (48 h, isolate D166, 2 days in transit, read-out: IC50): 6.6 nM
- IC50 [28]: 179 nM
- IC50 [29]: 8.6 nM
- IC50 [30]: 79.8 nM
Structure (SMILES): CCN(CC)Cc1cc(Nc2ccnc3cc(Cl)ccc23)ccc1O [Amodiaquine, amodiaquine]
